Results as given in BindingDB's records for doi:10.1016/j.bmcl.2009.09.017 (Pfizer, 2009).

Assay: Antagonist activity at P2Y12 receptor in human platelet rich plasma assessed as inhibition of ADP-induced platelet aggregation by light transmission aggregometry

Compound | IC50
CCCCCOC(=O)N1CCN(C(=O)[C@H](CCC(=O)O)NC(=O)c2cc(N3CCC(CN(CC)CC)CC3)nc(-c3ccccc3)n2)CC1 [(4S)-4-[(6-{4-[(diethylamino)methyl]piperidin-1-yl}-2-phenylpyrimidin-4-yl)formamido]-5-oxo-5-{4-[(pentyloxy)carbonyl]piperazin-1-yl}pentanoic acid] | 0.86 µM
CCCCOC(=O)N1CCN(C(=O)[C@H](CCC(=O)O)NC(=O)c2cc(OC(CC)C(=O)N(CC)CC)nc(-c3ccccc3)n2)CC1 (stereo partly drawn) [(4S)-5-(4-(butoxycarbonyl)piperazin-1-yl)-4-(6-(1-(diethylamino)-1-oxobutan-2-yloxy)-2-phenylpyrimidine-4-carboxamido)-5-oxopentanoic acid] | 49 µM
CCCCOC(=O)N1CCN(C(=O)[C@H](CCC(=O)O)NC(=O)c2cc(OCC3CCCO3)nc(-c3ccccc3)n2)CC1 (stereo partly drawn) [(4S)-5-(4-(butoxycarbonyl)piperazin-1-yl)-5-oxo-4-(2-phenyl-6-((tetrahydrofuran-2-yl)methoxy)pyrimidine-4-carboxamido)pentanoic acid] | 4.4 µM
CCCCCOC(=O)N1CCN(C(=O)[C@H](CCC(=O)O)NC(=O)c2cc(NCC3CCNC3)nc(-c3ccccc3)n2)CC1 (stereo partly drawn) [(4S)-5-oxo-5-(4-(pentyloxycarbonyl)piperazin-1-yl)-4-(2-phenyl-6-(pyrrolidin-3-ylmethylamino)pyrimidine-4-carboxamido)pentanoic acid] | 2.6 µM
CCCCCOC(=O)N1CCN(C(=O)[C@H](CCC(=O)O)NC(=O)c2nc(NC3CCN(C(C)C)CC3)cc(-c3ccccc3)n2)CC1 [(S)-4-(4-(1-isopropylpiperidin-4-ylamino)-6-phenylpyrimidine-2-carboxamido)-5-oxo-5-(4-(pentyloxycarbonyl)piperazin-1-yl)pentanoic acid] | > 10 µM
CCCCCOC(=O)N1CCN(C(=O)[C@H](CCC(=O)O)NC(=O)c2nc(OCCN(CC)CC)cc(-c3ccccc3)n2)CC1 [(S)-4-(4-(2-(diethylamino)ethoxy)-6-phenylpyrimidine-2-carboxamido)-5-oxo-5-(4-(pentyloxycarbonyl)piperazin-1-yl)pentanoic acid] | > 10 µM
CCCCCOC(=O)N1CCN(C(=O)[C@H](CCC(=O)O)NC(=O)c2nc(OCCOC)cc(-c3ccccc3)n2)CC1 [(S)-4-(4-(2-methoxyethoxy)-6-phenylpyrimidine-2-carboxamido)-5-oxo-5-(4-(pentyloxycarbonyl)piperazin-1-yl)pentanoic acid] | > 10 µM
CCCCCOC(=O)N1CCN(C(=O)[C@H](CCC(=O)O)NC(=O)c2nc(NCCOC)cc(-c3ccccc3)n2)CC1 [(S)-4-(4-(2-methoxyethylamino)-6-phenylpyrimidine-2-carboxamido)-5-oxo-5-(4-(pentyloxycarbonyl)piperazin-1-yl)pentanoic acid] | > 10 µM
CCCCCOC(=O)N1CCN(C(=O)[C@H](CCC(=O)O)NC(=O)c2nc(NCCCN(C)C)cc(-c3ccccc3)n2)CC1 [(S)-4-(4-(3-(dimethylamino)propylamino)-6-phenylpyrimidine-2-carboxamido)-5-oxo-5-(4-(pentyloxycarbonyl)piperazin-1-yl)pentanoic acid] | > 10 µM
CCCCCOC(=O)N1CCN(C(=O)[C@H](CCC(=O)O)NC(=O)c2nc(OCCCN3CCOCC3)cc(-c3ccccc3)n2)CC1 [(S)-4-(4-(3-morpholinopropoxy)-6-phenylpyrimidine-2-carboxamido)-5-oxo-5-(4-(pentyloxycarbonyl)piperazin-1-yl)pentanoic acid] | 7 µM
CCCCCOC(=O)N1CCN(C(=O)[C@H](CCC(=O)O)NC(=O)c2nc(-c3ccccc3)cc(N3CCN(CC(=O)N(C)C)CC3)n2)CC1 [(S)-4-(4-(4-(2-(dimethylamino)-2-oxoethyl)piperazin-1-yl)-6-phenylpyrimidine-2-carboxamido)-5-oxo-5-(4-(pentyloxycarbonyl)piperazin-1-yl)pentanoic acid] | 3 µM
CCCCCOC(=O)N1CCN(C(=O)[C@H](CCC(=O)O)NC(=O)c2nc(-c3ccccc3)cc(N3CCC(CCN)CC3)n2)CC1 [(S)-4-(4-(4-(2-aminoethyl)piperidin-1-yl)-6-phenylpyrimidine-2-carboxamido)-5-oxo-5-(4-(pentyloxycarbonyl)piperazin-1-yl)pentanoic acid] | 1.4 µM
CCCCCOC(=O)N1CCN(C(=O)[C@H](CCC(=O)O)NC(=O)c2nc(-c3ccccc3)cc(N3CCC(OCCO)CC3)n2)CC1 [(S)-4-(4-(4-(2-hydroxyethoxy)piperidin-1-yl)-6-phenylpyrimidine-2-carboxamido)-5-oxo-5-(4-(pentyloxycarbonyl)piperazin-1-yl)pentanoic acid] | > 10 µM
CCCCCOC(=O)N1CCN(C(=O)[C@H](CCC(=O)O)NC(=O)c2nc(-c3ccccc3)cc(N3CCC(OCCOC)CC3)n2)CC1 [(S)-4-(4-(4-(2-methoxyethoxy)piperidin-1-yl)-6-phenylpyrimidine-2-carboxamido)-5-oxo-5-(4-(pentyloxycarbonyl)piperazin-1-yl)pentanoic acid] | 5.3 µM
CCCCCOC(=O)N1CCN(C(=O)[C@H](CCC(=O)O)NC(=O)c2nc(-c3ccccc3)cc(N3CCN(CCOC)CC3)n2)CC1 [(S)-4-(4-(4-(2-methoxyethyl)piperazin-1-yl)-6-phenylpyrimidine-2-carboxamido)-5-oxo-5-(4-(pentyloxycarbonyl)piperazin-1-yl)pentanoic acid] | 5.1 µM
CCCCCOC(=O)N1CCN(C(=O)[C@H](CCC(=O)O)NC(=O)c2nc(-c3ccccc3)cc(N3CCC(CCOC)CC3)n2)CC1 [(S)-4-(4-(4-(2-methoxyethyl)piperidin-1-yl)-6-phenylpyrimidine-2-carboxamido)-5-oxo-5-(4-(pentyloxycarbonyl)piperazin-1-yl)pentanoic acid] | > 10 µM
CCCCCOC(=O)N1CCN(C(=O)[C@H](CCC(=O)O)NC(=O)c2nc(-c3ccccc3)cc(N3CCC(COCCOC)CC3)n2)CC1 [(S)-4-(4-(4-((2-methoxyethoxy)methyl)piperidin-1-yl)-6-phenylpyrimidine-2-carboxamido)-5-oxo-5-(4-(pentyloxycarbonyl)piperazin-1-yl)pentanoic acid] | > 10 µM
CCCCCOC(=O)N1CCN(C(=O)[C@H](CCC(=O)O)NC(=O)c2nc(-c3ccccc3)cc(N3CCC(CNCC)CC3)n2)CC1 [(S)-4-(4-(4-((ethylamino)methyl)piperidin-1-yl)-6-phenylpyrimidine-2-carboxamido)-5-oxo-5-(4-(pentyloxycarbonyl)piperazin-1-yl)pentanoic acid] | 1.2 µM
CCCCCOC(=O)N1CCN(C(=O)[C@H](CCC(=O)O)NC(=O)c2nc(-c3ccccc3)cc(N3CCC(CNC)CC3)n2)CC1 [(S)-4-(4-(4-((methylamino)methyl)piperidin-1-yl)-6-phenylpyrimidine-2-carboxamido)-5-oxo-5-(4-(pentyloxycarbonyl)piperazin-1-yl)pentanoic acid] | 1.3 µM
CCCCCOC(=O)N1CCN(C(=O)[C@H](CCC(=O)O)NC(=O)c2nc(-c3ccccc3)cc(N3CCC(CN)CC3)n2)CC1 [(S)-4-(4-(4-(aminomethyl)piperidin-1-yl)-6-phenylpyrimidine-2-carboxamido)-5-oxo-5-(4-(pentyloxycarbonyl)piperazin-1-yl)pentanoic acid] | 0.77 µM
CCCCCOC(=O)N1CCN(C(=O)[C@H](CCC(=O)O)NC(=O)c2nc(-c3ccccc3)cc(N3CCC(C(=O)N(CC)CC)CC3)n2)CC1 [(S)-4-(4-(4-(diethylcarbamoyl)piperidin-1-yl)-6-phenylpyrimidine-2-carboxamido)-5-oxo-5-(4-(pentyloxycarbonyl)piperazin-1-yl)pentanoic acid] | 1.3 µM
CCCCCOC(=O)N1CCN(C(=O)[C@H](CCC(=O)O)NC(=O)c2nc(-c3ccccc3)cc(N3CCN(C(=O)N(C)C)CC3)n2)CC1 [(S)-4-(4-(4-(dimethylcarbamoyl)piperazin-1-yl)-6-phenylpyrimidine-2-carboxamido)-5-oxo-5-(4-(pentyloxycarbonyl)piperazin-1-yl)pentanoic acid] | > 10 µM
CCCCCOC(=O)N1CCN(C(=O)[C@H](CCC(=O)O)NC(=O)c2nc(-c3ccccc3)cc(N3CCC(COC)CC3)n2)CC1 [(S)-4-(4-(4-(methoxymethyl)piperidin-1-yl)-6-phenylpyrimidine-2-carboxamido)-5-oxo-5-(4-(pentyloxycarbonyl)piperazin-1-yl)pentanoic acid] | 6.8 µM
CCCCCOC(=O)N1CCN(C(=O)[C@H](CCC(=O)O)NC(=O)c2nc(-c3ccccc3)cc(N3CCN(C(C)=O)CC3)n2)CC1 [(S)-4-(4-(4-acetylpiperazin-1-yl)-6-phenylpyrimidine-2-carboxamido)-5-oxo-5-(4-(pentyloxycarbonyl)piperazin-1-yl)pentanoic acid] | 6.5 µM
CCCCCOC(=O)N1CCN(C(=O)[C@H](CCC(=O)O)NC(=O)c2nc(-c3ccccc3)cc(N3CCC(N)CC3)n2)CC1 [(S)-4-(4-(4-aminopiperidin-1-yl)-6-phenylpyrimidine-2-carboxamido)-5-oxo-5-(4-(pentyloxycarbonyl)piperazin-1-yl)pentanoic acid] | 2.7 µM
CCCCCOC(=O)N1CCN(C(=O)[C@H](CCC(=O)O)NC(=O)c2nc(-c3ccccc3)cc(N3CCN(C(N)=O)CC3)n2)CC1 [(S)-4-(4-(4-carbamoylpiperazin-1-yl)-6-phenylpyrimidine-2-carboxamido)-5-oxo-5-(4-(pentyloxycarbonyl)piperazin-1-yl)pentanoic acid] | 3.6 µM
CCCCCOC(=O)N1CCN(C(=O)[C@H](CCC(=O)O)NC(=O)c2nc(-c3ccccc3)cc(N3CCC(C(N)=O)CC3)n2)CC1 [(S)-4-(4-(4-carbamoylpiperidin-1-yl)-6-phenylpyrimidine-2-carboxamido)-5-oxo-5-(4-(pentyloxycarbonyl)piperazin-1-yl)pentanoic acid] | 2.3 µM
CCCCCOC(=O)N1CCN(C(=O)[C@H](CCC(=O)O)NC(=O)c2nc(-c3ccccc3)cc(N3CCC(OC)CC3)n2)CC1 [(S)-4-(4-(4-methoxypiperidin-1-yl)-6-phenylpyrimidine-2-carboxamido)-5-oxo-5-(4-(pentyloxycarbonyl)piperazin-1-yl)pentanoic acid] | > 10 µM
CCCCCOC(=O)N1CCN(C(=O)[C@H](CCC(=O)O)NC(=O)c2nc(-c3ccccc3)cc(N3CCN(C)CC3)n2)CC1 [(S)-4-(4-(4-methylpiperazin-1-yl)-6-phenylpyrimidine-2-carboxamido)-5-oxo-5-(4-(pentyloxycarbonyl)piperazin-1-yl)pentanoic acid] | 8.1 µM
